For one data set, the target named is Insulin receptor (Homo sapiens, UniProt P06213). Briefly: Inhibition of insulin stimulated INSR phosphorylation in human HeLa cells preincubated for 1 hr followed by insulin addition measured after 5 mins by Western blot analysis. Type of data set: cell-based.
Data set [1] is described as follows: Clearance in iv dosed Sprague-Dawley rat. The conditions noted are these: in vivo. Type of data set: ADME, organism-based.
The nature of data set [2]: Volume of distribution at steady state in iv dosed Sprague-Dawley rat. Type of data set: ADME, organism-based. The conditions noted are these: in vivo, read-out: Vdss.
The target in data set [3] is Vascular endothelial growth factor receptor 2 (Homo sapiens, UniProt P35968). As to the kind of experiment: Inhibition of VEGF stimulated VEGFR2 phosphorylation at […] residues in HUVEC preincubated for 1 hr followed by VEGF addition measured after 5 mins by Western blot analysis.
Chain of Vascular endothelial growth factor receptor 2 (P35968 whole entry): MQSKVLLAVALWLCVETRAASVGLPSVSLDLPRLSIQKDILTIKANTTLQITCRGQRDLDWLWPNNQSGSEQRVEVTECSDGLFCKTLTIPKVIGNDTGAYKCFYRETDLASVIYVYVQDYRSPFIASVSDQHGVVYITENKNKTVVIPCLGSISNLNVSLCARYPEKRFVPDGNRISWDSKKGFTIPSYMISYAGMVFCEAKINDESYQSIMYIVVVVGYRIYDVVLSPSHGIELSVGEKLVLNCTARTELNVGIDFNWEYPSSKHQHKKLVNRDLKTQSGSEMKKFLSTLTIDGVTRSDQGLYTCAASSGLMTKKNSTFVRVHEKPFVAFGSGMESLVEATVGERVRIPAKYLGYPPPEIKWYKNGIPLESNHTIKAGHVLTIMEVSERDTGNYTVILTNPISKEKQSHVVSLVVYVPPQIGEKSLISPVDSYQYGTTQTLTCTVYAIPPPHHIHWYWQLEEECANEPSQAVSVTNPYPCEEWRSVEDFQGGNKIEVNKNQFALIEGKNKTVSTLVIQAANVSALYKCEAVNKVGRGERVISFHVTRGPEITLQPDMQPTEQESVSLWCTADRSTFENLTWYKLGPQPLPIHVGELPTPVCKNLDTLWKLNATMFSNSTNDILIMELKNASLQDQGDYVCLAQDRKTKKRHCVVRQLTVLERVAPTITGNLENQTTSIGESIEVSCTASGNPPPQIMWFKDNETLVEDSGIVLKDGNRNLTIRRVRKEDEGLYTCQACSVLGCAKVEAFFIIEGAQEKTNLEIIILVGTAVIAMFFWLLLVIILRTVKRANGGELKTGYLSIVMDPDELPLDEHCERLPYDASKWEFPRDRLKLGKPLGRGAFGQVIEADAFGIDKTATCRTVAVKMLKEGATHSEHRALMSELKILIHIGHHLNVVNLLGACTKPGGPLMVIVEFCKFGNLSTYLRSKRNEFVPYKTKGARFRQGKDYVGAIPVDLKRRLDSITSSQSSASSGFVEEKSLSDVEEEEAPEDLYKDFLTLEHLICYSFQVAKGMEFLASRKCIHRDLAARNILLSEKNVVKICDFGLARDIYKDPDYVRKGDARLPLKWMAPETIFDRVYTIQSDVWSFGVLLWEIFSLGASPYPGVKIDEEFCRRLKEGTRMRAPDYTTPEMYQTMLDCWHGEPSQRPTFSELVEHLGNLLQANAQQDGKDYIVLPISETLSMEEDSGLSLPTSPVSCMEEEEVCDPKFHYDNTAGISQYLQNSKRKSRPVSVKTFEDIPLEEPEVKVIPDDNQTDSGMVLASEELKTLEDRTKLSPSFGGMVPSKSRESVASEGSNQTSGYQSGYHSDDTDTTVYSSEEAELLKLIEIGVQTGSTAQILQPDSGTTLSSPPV
Data set [4] is described as follows: Half life in iv dosed Sprague-Dawley rat. Type of data set: ADME, organism-based. The conditions noted are these: in vivo.
In data set [5] the target is T1, Tyrosine-protein kinase receptor UFO (Homo sapiens, UniProt P30530).
T1 sequence (P30530 whole entry): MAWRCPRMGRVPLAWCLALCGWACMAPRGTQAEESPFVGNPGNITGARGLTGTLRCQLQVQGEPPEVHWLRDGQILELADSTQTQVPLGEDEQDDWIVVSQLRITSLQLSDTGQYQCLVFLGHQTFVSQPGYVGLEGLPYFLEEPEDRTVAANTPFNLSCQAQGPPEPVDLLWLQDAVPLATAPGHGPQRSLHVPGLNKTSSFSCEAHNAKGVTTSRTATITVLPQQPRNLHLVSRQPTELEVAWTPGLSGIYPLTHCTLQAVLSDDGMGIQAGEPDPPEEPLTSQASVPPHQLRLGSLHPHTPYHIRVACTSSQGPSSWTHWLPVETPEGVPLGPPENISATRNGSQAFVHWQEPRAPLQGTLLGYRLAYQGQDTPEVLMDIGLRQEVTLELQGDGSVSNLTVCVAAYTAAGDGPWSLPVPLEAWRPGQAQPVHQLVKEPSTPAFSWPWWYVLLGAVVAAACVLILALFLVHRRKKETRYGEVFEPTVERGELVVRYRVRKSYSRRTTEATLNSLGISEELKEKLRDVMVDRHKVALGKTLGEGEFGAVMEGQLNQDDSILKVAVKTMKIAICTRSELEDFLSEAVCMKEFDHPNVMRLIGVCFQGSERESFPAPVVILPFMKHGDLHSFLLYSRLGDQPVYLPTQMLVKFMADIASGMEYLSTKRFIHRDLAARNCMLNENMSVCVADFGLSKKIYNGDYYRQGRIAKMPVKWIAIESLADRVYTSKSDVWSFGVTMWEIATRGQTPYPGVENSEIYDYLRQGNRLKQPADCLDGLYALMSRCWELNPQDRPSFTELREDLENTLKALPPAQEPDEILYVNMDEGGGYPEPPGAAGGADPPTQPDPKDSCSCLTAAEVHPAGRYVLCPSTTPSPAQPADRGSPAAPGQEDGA
As to the kind of experiment: Inhibition of Axl in human HeLa cells assessed as reduction in AKT phosphorylation at Ser 473 residues pre-incubated for 1 hr before preclustered anti-Axl antibody stimulation by Western blot analysis. Type of data set: cell-based.

The nature of data set [6]: Oral bioavailability in Sprague-Dawley rat. Format: ADME, organism-based. The conditions noted are these: in vivo.
Data set [7] in a line: Aqueous solubility of the compound. Conditions: buffer. Format: physicochemical.
Data set [8] has as its system Mus musculus. As to the kind of experiment: Inhibition of fibroblast growth factor-induced neovascularization in mouse corneal micropocket at 100 mg/kg, bid relative to control. Type of data set: functional.
In data set [9] the test system is MDA-MB-231. As to the kind of experiment: Antitumor activity against human MDA-MB-231 cells xenografted in nu/nu mouse assessed as tumor growth delay at 125 mg/kg, po bid after 21 days relative to control. Type of data set: functional.
In data set [10] the test system is Mus musculus. Briefly: Toxicity in nu/nu mouse xenografted with human MDA-MB-231 cells at 125 mg/kg, po bid after 21 days. Conditions: in vivo, 504 h. Type of data set: organism-based.
In data set [11] the test system is CAKI-1. As to the kind of experiment: Antitumor activity against human Caki1 cells xenografted model assessed as tumor growth inhibition at 85 mg/kg, po bid relative to control. Format: functional. Conditions: CAKI-1, po, read-out: TGI.
For data set [12], the system named is Mus musculus. Briefly: Toxicity in nu/nu mouse xenografted with human MDA-MB-231 cells at 85 mg/kg, po bid after 21 days. Conditions: in vivo, 504 h. Type of data set: organism-based.
In data set [13] the test system is MDA-MB-231. Briefly: Antitumor activity against human MDA-MB-231 cells xenografted in nu/nu mouse assessed as tumor growth inhibition at 85 mg/kg, po bid after 21 days relative to control. Format: functional. Conditions: MDA-MB-231, po, 504 h, read-out: TGI.
The test system of data set [14] is MDA-MB-231. As to the kind of experiment: Antitumor activity against human MDA-MB-231 cells xenografted in nu/nu mouse assessed as tumor growth inhibition at 125 mg/kg, po bid after 21 days relative to control. Type of data set: functional. The conditions noted are these: MDA-MB-231, po, 504 h, read-out: TGI.
Data set [15] relates to Mus musculus. Briefly: Inhibition of fibroblast growth factor-induced neovascularization in mouse corneal micropocket at 50 mg/kg, bid relative to control. Type of data set: functional.
Data set [16] deals with T1, Tyrosine-protein kinase receptor UFO. Briefly: Inhibition of N-terminal GST-tagged human Axl (464 to 885 end residues) cytoplasmic domain expressed in baculovirus expression system using HS1 peptide as substrate after 40 mins in presence of ATP by fluorescence polarization assay.
Data set [17] relates to MDA-MB-231. Briefly: Antitumor activity against human MDA-MB-231 cells xenografted in nu/nu mouse assessed as tumor growth inhibition at 80 mg/kg, qd after 21 days relative to control. Type of data set: functional. Conditions: MDA-MB-231, 504 h, read-out: TGI.
Data set [18] concerns CAKI-1. Briefly: Antitumor activity against human Caki1 cells xenografted model assessed as tumor growth inhibition at 80 mg/kg, po qd relative to control. Type of data set: functional. The conditions noted are these: CAKI-1, po, read-out: TGI.
In data set [19] the test system is Mus musculus. Briefly: Inhibition of fibroblast growth factor-induced neovascularization in mouse corneal micropocket at 80 mg/kg, qd relative to control. Type of data set: functional.

Chain of Insulin receptor (P06213 28-758 limits assumed): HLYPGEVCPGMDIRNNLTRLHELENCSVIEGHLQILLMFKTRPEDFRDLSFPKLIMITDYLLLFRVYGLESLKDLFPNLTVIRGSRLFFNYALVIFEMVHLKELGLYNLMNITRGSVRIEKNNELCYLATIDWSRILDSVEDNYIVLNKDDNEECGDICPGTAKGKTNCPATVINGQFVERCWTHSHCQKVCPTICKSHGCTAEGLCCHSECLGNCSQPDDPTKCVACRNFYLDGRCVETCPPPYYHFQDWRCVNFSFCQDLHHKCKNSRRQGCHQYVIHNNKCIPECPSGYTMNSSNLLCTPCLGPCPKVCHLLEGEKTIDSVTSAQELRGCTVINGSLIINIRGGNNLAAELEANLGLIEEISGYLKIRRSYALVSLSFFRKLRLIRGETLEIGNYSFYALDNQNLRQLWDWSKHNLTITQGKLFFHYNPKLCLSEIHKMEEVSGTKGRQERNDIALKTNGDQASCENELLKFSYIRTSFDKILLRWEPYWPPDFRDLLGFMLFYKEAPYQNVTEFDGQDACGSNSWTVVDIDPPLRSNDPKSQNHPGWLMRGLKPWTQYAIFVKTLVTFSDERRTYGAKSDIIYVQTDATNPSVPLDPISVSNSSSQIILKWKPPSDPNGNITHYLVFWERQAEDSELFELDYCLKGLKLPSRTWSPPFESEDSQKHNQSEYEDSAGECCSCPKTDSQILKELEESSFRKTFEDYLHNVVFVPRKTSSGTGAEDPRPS
Chain of Insulin receptor (P06213 763-1382 limits assumed): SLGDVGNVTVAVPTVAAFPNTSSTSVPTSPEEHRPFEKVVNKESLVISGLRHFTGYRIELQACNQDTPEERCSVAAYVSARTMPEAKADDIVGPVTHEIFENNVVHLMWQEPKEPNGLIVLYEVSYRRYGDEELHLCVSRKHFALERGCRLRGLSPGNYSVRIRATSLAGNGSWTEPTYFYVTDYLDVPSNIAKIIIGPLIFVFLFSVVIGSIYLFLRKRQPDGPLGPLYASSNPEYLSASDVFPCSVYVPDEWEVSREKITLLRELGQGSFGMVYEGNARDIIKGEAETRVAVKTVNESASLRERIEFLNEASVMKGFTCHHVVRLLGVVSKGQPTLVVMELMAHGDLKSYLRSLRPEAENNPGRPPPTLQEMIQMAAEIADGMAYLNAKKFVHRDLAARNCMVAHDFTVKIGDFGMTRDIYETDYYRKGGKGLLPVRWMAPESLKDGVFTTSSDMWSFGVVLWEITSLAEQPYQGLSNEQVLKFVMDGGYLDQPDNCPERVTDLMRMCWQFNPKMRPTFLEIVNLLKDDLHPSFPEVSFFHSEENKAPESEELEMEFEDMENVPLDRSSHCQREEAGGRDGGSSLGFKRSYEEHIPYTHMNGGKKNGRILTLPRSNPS

`COc1cc2ncnc(-n3nc(Nc4ccc(N5CCN(C6CC7CCC6C7)CC5)c(Cl)c4)nc3N)c2cc1OC` (configuration not stated): the EC50 on Insulin receptor was more than 10000 nM; in [3], 47 nM. The compound further registered a clearance in [1] of 117 mL/min/kg. In addition, the Vd in [2] worked out at 27 L/kg. Besides, in data set [4], the half-life was 162 min.

Regarding `Cc1nc(-n2nc(Nc3ccc(OCCN4CCCC4)cc3)nc2N)c2ccccc2n1`, the response on Insulin receptor was half-maximal at 320 nM (EC50).

With `Nc1nc(Nc2ccc(OCCN3CCCC3)cc2)nn1-c1ncnc2ccc(F)cc12`, at Insulin receptor, the midpoint of the response, the EC50, lay at 126 nM.

As for `Nc1nc(Nc2ccc(OCCN3CCCC3)c(F)c2)nn1-c1ccccn1`, the EC50 in [5] is 334 nM.

As to `COc1cc2ncnc(-n3nc(Nc4ccc(N5CCN(C)CC5)cc4)nc3N)c2cc1OC`, the EC50 worked out at 39 nM in data set [5], 4580 nM at Insulin receptor and 3 nM in [3].

For `Cc1csc2c(-n3nc(Nc4ccc(N5CCN([C@@H]6C[C@H]7CC[C@@H]6C7)CC5)c(Cl)c4)nc3N)nc(Cl)nc12`, the EC50 in data set [5] was found to be 216 nM.

Regarding `Nc1nc(Nc2ccc(OCCN3CCCC3)cc2)nn1-c1ncnc2c1sc1ccccc12`, it took 300 nM to reach a half-maximal effect at Insulin receptor (EC50).

As for `COc1cc2ncnc(-n3nc(Nc4ccc(N5CCN(C6CCCCC6)CC5)c(F)c4)nc3N)c2cc1OC`, the figures for the EC50 (in [5]; at Insulin receptor; in data set [3]) were 55 nM, 5030 nM and 26 nM, respectively.

Compound `COc1cc2ncnc(-n3nc(Nc4ccc(OCCN5CCCC5)c(Cl)c4)nc3N)c2cc1OC` registered an EC50 on Insulin receptor of 4170 nM.

`Nc1nc(Nc2ccc(OCCN3CCCC3)cc2)nn1-c1ncnc2c1CCC2` displayed an EC50 at Insulin receptor of 1010 nM.

In the case of `Nc1nc(Nc2ccc(OCCN3CCCC3)cc2)nn1-c1ncnc2ccc(Cl)cc12`, on Insulin receptor, a half-maximal response (EC50) required 14 nM.

Take `COc1cc2ncnc(-n3nc(Nc4ccc(N5CC[C@H](N(C)C)C5)cc4)nc3N)c2cc1OC`: the EC50 in data set [5] is 193 nM; at Insulin receptor, 4760 nM; in data set [3], 19 nM.

Regarding `COc1cc2ncnc(-n3nc(Nc4ccc(C5CCN(C)CC5)cc4)nc3N)c2cc1OC`, the EC50 turned out to be 16 nM in data set [5], 1320 nM at Insulin receptor and 14 nM in data set [3].

In the case of `Nc1nc(Nc2ccc(OCCN3CCCC3)c(F)c2)nn1C(=O)c1ccc(N2CCOCC2)cc1`, the EC50 was 47 nM in data set [5] and 2750 nM at Insulin receptor. For the same compound, the bioavailability in data set [6] is less than 1%. Also, the solubility result in data set [7] is listed as “Insoluble”.

Regarding `COc1cc2ncnc(-n3nc(Nc4ccc(OC5CCCN(C)C5)cc4)nc3N)c2cc1OC` (configuration not stated), the figures for the EC50 (in data set [5]; at Insulin receptor; in data set [3]) were 52 nM, 1800 nM and 4 nM, respectively.

In the case of `Cc1csc2c(-n3nc(Nc4ccc(N5CCN([C@H]6C[C@@H]7CC[C@H]6C7)CC5)c(Cl)c4)nc3N)nc(Cl)nc12`, the EC50 in [5] was determined as 136 nM. Besides, the inhibition in vivo at 100 mg/kg in the data set with Mus musculus [8] was found to be 73%. Besides, the Activity with MDA-MB-231 [9] was 79%; in the data set with Mus musculus [10], “Toxic”; in the data set on Mus musculus [12], “Non-Toxic”. Moreover, the inhibition in vivo at 85 mg/kg was 80% in the data set with CAKI-1 [11] and 69% in the data set with MDA-MB-231 [13]. The inhibition in vivo at 125 mg/kg in the data set with MDA-MB-231 [14] is 83%. In the data set on Mus musculus [15], this compound showed an inhibition in vivo at 50 mg/kg of 50%.

`Nc1nc(Nc2ccc(OCCN3CCCC3)cc2)nn1-c1nc(Cl)nc2ccccc12`: the EC50 amounted to 27 nM in data set [5] and 241 nM on Insulin receptor. Besides, the IC50 in data set [16] is 7 nM.

`Cc1csc2c(-n3nc(Nc4ccc(OCCN5CCCC5)cc4)nc3N)nc(Cl)nc12`: the EC50 at Insulin receptor was found to be 582 nM.

For the compound `Nc1nc(Nc2ccc(N3CCN(C4CC5CCC4C5)CC3)c(F)c2)nn1-c1ncnc2ccsc12` (racemic), the EC50 in data set [5] worked out at 20 nM.

Take `Cc1csc2c(-n3nc(Nc4ccc(N5CCN(C6CC7CCC6C7)CC5)c(F)c4)nc3N)ncnc12` (racemic): the EC50 in data set [5] is 62 nM; in data set [3], 90 nM.

For the compound `Cc1csc2c(-n3nc(Nc4ccc(N5CCN(C6CC7CCC6C7)CC5)cc4)nc3N)nc(Cl)nc12` (racemic), in data set [1], the clearance is 11.5 mL/min/kg. Besides, the Vd in data set [2] is 4.4 L/kg. The compound further gave an EC50 in data set [3] of 65 nM. For the same compound, in [4], the half-life is 294 min.

Take `Nc1nc(Nc2ccc(N3CCN(C4CC5CCC4C5)CC3)cc2)nn1-c1ncnc2c1sc1ncccc12` (racemic): the EC50 in data set [5] stood at 52 nM; in data set [3] it was 24 nM.

`Nc1nc(Nc2ccc(N3CCN(C4CC5CCC4C5)CC3)c(Cl)c2)nn1-c1ncnc2sccc12` (racemic): the EC50 was determined as 85 nM in data set [5] and 160 nM in [3].

With `Cc1nc(-n2nc(Nc3ccc(N4CCN(C5CC6CCC5C6)CC4)cc3)nc2N)c2ccccc2n1` (racemic), in data set [3], a half-maximal response (EC50) required 104 nM.

`Nc1nc(Nc2ccc(N3CCN(C4CC5CCC4C5)CC3)cc2)nn1-c1ncnc2ccc(Cl)cc12` (racemic) showed an EC50 in data set [3] of 196 nM.

On to `CC(C)(C)c1cc2ncnc(-n3nc(Nc4ccc(N5CCN(C6CC7CCC6C7)CC5)c(Cl)c4)nc3N)c2s1` (racemic), for which the EC50 in data set [5] worked out at 84 nM; in data set [3], 80 nM.

For `Nc1nc(Nc2ccc(N3CCN(C4CC5CCC4C5)CC3)cc2)nn1-c1ncnc2ccc(F)cc12` (racemic), the clearance in data set [1] came to 44 mL/min/kg. Besides, in data set [2], the Vd turned out to be 7.9 L/kg. For the same compound, in [3], the EC50 amounted to 146 nM. This compound had a half-life in [4] of 138 min.

Turning to `Nc1nc(Nc2ccc(N3CCN(C4CC5CCC4C5)CC3)cc2)nn1-c1ncnc2ccsc12` (racemic), the EC50 amounted to 21 nM in data set [5] and 24 nM in data set [3].

In [1], `Nc1nc(Nc2ccc(N3CCN(C4CC5CCC4C5)CC3)cc2)nn1-c1nccc2ccccc12` (racemic) gave a clearance of 52 mL/min/kg. Besides, the Vd in [2] turned out to be 8.8 L/kg. The half-life in data set [4] is 138 min.

Take `CCN(CC)CCNC(=O)c1c(C)[nH]c(/C=C2\C(=O)Nc3ccc(F)cc32)c1C` [SUNITINIB]: the results for the inhibition in vivo at 80 mg/kg in the data set on MDA-MB-231 [17], with CAKI-1 [18] and with Mus musculus [19] were 84%, 85% and 78%, respectively.

The values above are taken from ChEMBL document CHEMBL4052763, “Discovery of dual Axl/VEGF-R2 inhibitors as potential anti-angiogenic and anti-metastatic drugs for cancer chemotherapy” (Bioorg Med Chem Lett, 2017).
